The values below come from paper PMC11747041, “Study of an arginine- and tryptophan-rich antimicrobial peptide in peri-implantitis” (Frontiers in Bioengineering and Biotechnology, 2025).

Data set [1] has as its system Fusobacterium nucleatum (ATCC 25586). In kind it is cell-based. The note with it: ATCC 25586, 48 h. As to the method:
(§1) Streptococcus gordonii (ATCC 10558) is a facultative anaerobic bacterium, Fusobacterium nucleatum (ATCC 25586) and Porphyromonas gingivalis (BNCC 353909) are obligate anaerobic bacteria. The effectiveness of VR-12 in suppressing bacterial proliferation was assessed using the standard broth dilution method ([Tang et al., 2022]). Various concentrations of VR-12 (1,000–7.8 μg/mL, serial two-fold dilution) were mixed with liquid medium broth containing bacteria (1 × 10^6 CFU/mL) at a ratio of 1:1, with an overall volume of 200 µL. A blank control was established using a 200 µL PBS solution, whereas a negative control was prepared by combining 100 µL PBS solution with 100 µL of bacterial culture (1 × 10^6 CFU/mL). The bacterial cultures were incubated in liquid medium for 24/48 h at 37°C, with daily observation of the bacterial sediment accumulation at the base of the well. MIC refers to the minimal concentration of peptide that induces a clear liquid and no visible bacterial growth in the well. The bacterial suspension in the well with a concentration greater than the MIC was pipetted evenly and 10 µL of the liquid was extracted from the well and transferred to agar plates and incubated for 24/48 h for MBC determination.

Data set [2] has as its system Porphyromonas gingivalis (BNCC 353909). The class given is cell-based. As to conditions: 48 h. As to the method: as §1
Data set [3] relates to Streptococcus gordonii (ATCC 10558). The class given is cell-based. The note with it: ATCC 10558, 48 h. As to the method:
as §1

The test system of data set [4] is RAW264.7 cells. The data set is described as follows: Cell proliferation, CCK-8 assay. In kind it is cell-based, murine. The note with it: RAW264.7, 125 μg/mL, CCK-8, OD450. As to the method:
RAW264.7 cells (murine macrophage cell line, ATCC, Manassas, VA, United States) and HGFs (ATCC, Manassas, VA, United States) were cultured (37°C, sterile atmosphere of 5% CO2) in DMEM (Gibco, United States) containing 10% (v/v) fetal bovine serum (FBS, Solarbio Co., Ltd., Beijing, China) and 1% penicillin/streptomycin (Gibco, Carlsbad, CA).
We assessed cell growth using the Cell Counting Kit-8 (CCK-8) assay ([Chen et al., 2022]). Cells (1,000 cells/well) were seeded in a 96-well plate. After 24 h, the cells were treated with VR-12 (7.81–125 μg/mL, serial two-fold dilution) for 1, 3, 5, and 7 days. The wells without VR-12 were used as blank controls. Cells were incubated using the CCK-8 kit (New Cell&Molecular Biotech Co., Ltd., Suzhou, China), and the absorbance was measured at OD450.
Background: Formazan colour is commonly taken as a measure of viable cells.

In data set [5] the test system is RAW264.7 cells. In words: Live/dead assay (calcein AM/PI). In kind it is cell-based, murine. The note with it: RAW264.7, 62.5 μg/mL, 24 h, vs untreated cells. As to the method: (§2) A total of 5 × 10^4 cells per well were inoculated into 24-well plates. After 24 h, the cells were exposed to two different types of culture medium: regular medium and medium supplemented with VR-12 (62.5 μg/mL). Following a 24-hour incubation period, the cells were incubated with 200 µL of fresh medium containing calcein AM solution and propidium iodide (PI; Beyotime, Shanghai, China) solution, protected from light for 20 min at room temperature. The observations were conducted using inverted fluorescence microscopy (IX71, Olympus, Japan) and images were captured for documentation purposes.

The test system of the next data set is HGFs. In words: Live/dead assay (calcein AM/PI). In kind it is cell-based, human. As to conditions: 62.5 μg/mL, 24 h, vs untreated cells. As to the method: as §2
Another data set deals with rat red blood cells. As to conditions: 125 μg/mL (maximum concentration examined), rat erythrocytes 5% (v/v) suspension, 37°C, 1.5 h, OD540, 1% Triton X-100 positive control.

No end group written: not given here.

Procedure for rat red blood cells: Initially, the cells underwent three washing cycles with PBS, followed by centrifugation at 1,000 rpm for 10 min at ambient temperature. After removing the supernatant, a suspension of cells at a concentration of 5% (v/v) was prepared using 0.9% NaCl solution (w/v). Subsequently, 100 μL of peptides at varying concentrations (7.81–125 μg/mL, serial two-fold dilution) were combined with 100 μL of the red blood cell suspensions. The mixture underwent incubation at 37°C for a duration of 1.5 h, after which it was subjected to centrifugation at 1,000 rpm for 5 min, and measurement of absorbance at OD540.1% Triton X-100 and NaCl (0.9%) were used as positive and negative controls, respectively. The hemolysis rate (HR) was determined by employing this formula: HR%=ODt−ODn/ODp−ODn×100% where ODp, ODn and ODt were the absorbance values of the positive control group, the negative control group and the test group, respectively.

The MBC is the smallest concentration meeting the test's criterion for killing. The low end stands for greater bactericidal potency, the high end for weaker bactericidal potency. A word on the MIC: it is the lowest concentration found to suppress growth. Turning to VRLWVRVRRWRR-NH2 [VR-12], the α-helix + β-sheet proportion was 31.5%. In data set [1], this substance displayed an MBC of 125 µg/mL and an MIC of 62.5 µg/mL. In data set [2], this substance showed an MBC of 125 µg/mL and an MIC of 62.5 µg/mL. In data set [3], this substance had an MBC of 62.5 µg/mL and an MIC of 31.25 µg/mL. In the data set with RAW264.7 cells [4], the Inhibition rate result is on record as “approximately 50%”. Moreover, the “Cell viability by live/dead staining” value with RAW264.7 cells [5] is on record as “no significant difference in cell viability”. In addition, the “Cell viability by live/dead staining” value in the data set with HGFs is listed as “no significant difference in cell viability”. For the same substance, in the data set on rat red blood cells, the Hemolysis rate worked out at 3.27%.
